Consider 1 compound from patent publication US12636298B2, “Composition with L-theanine and fructooligosaccharides for human memory enhancement” (HARKE Pharma GmbH, priority 2019, dated 2026).

In assay [1] the test system is KumMing (KM) mice. Put plainly: Passive avoidance test (embodiment 1). The format is in vivo, mouse. The text has this:
The Passive Avoidance Test (Solomon and Wynne, 1954; Solomon and Turner, 1960) is a fear-aggravated task employed to evaluate learning and memory in rodent models. In this test, subjects learn to avoid an environment in which an aversive stimulus (such as a foot-shock) was previously delivered. The test chamber is divided into a light compartment and a dark compartment, with a gate between the two. Animals are allowed to explore both compartments on the first day. On the following day, they are given a mild foot shock in one of the compartments. Animals will learn to associate certain properties of the chamber with the foot shock. In order to test their learning and memory, the mice are then placed back in the compartment where no shock was delivered. Mice with normal learning and memory will avoid entering the chamber where they had previously been exposed to the shock. This is measured by recording the latency to cross through the gate between the compartments. “Learning” is the period where mice were trained in this test (Table 1 and 2). Mice were tested at 24 or 48 hours after learning and the results were recorded (“Test column” in Table 1 and 2). “Fade” indicates re-testing of mice 5 days after learning (“Fade column” Table 1 and 2). Error percentage indicates the percentage of mice that have been shocked during the test. Our research was undertaken with KumMing (KM) mice (Dai et al. 2012; Ma et al. 2013). In each test, 48 KM mice were separated into 4 groups, 12 mice per group. A negative-control group was also included in the test and mock treated. […] We subsequently, tested different doses of embodiment 1, 0.1, 0.2 or 0.3 g/kg of mouse body weight (bw) of embodiment 1, consisting of a combination of fructooligoscharide and L-theanine, in the passive avoidance test.

The test system of assay [2] is mice. Put plainly: Water maze test (MT-01 vs FOS and L-theanine). The assay is classed as in vivo. To be noted: for Error count during testing phase: MT-01 both, control 4.11. The procedure:
Furthermore, to test the hypothesis that administration of M. officinalis FOS and L-theanine in a ratio of about 2:1 L-theanine:FOS synergistically enhance mice memory, we have performed a step-down passive avoidance test and a water maze test. This was employed to assess the effect of M. officinalis FOS and L-theanine individually on mice memory compared to their collective effect when administrated in combination in a ratio of about 2:1 L-theanine:FOS (MT-01) (FIG. 1). Maze test was performed to further confirm the hypothesis. […] We analysed the synergy between FOS and L-theanine in the formulation by calculating the coefficient of drug interaction (CDI), as shown in Table 1.

For assay [3], the system named is mice. Put plainly: Step-down passive avoidance test (MT-01 vs FOS and L-theanine). The format is in vivo. To be noted: for Error count during testing phase: MT-01 both, control 2.33; for latency during the retention phase (FIG. 1c): comparison between groups. The source says:
Furthermore, to test the hypothesis that administration of M. officinalis FOS and L-theanine in a ratio of about 2:1 L-theanine:FOS synergistically enhance mice memory, we have performed a step-down passive avoidance test and a water maze test. This was employed to assess the effect of M. officinalis FOS and L-theanine individually on mice memory compared to their collective effect when administrated in combination in a ratio of about 2:1 L-theanine:FOS (MT-01) (FIG. 1).
We analysed the synergy between FOS and L-theanine in the formulation by calculating the coefficient of drug interaction (CDI), as shown in Table 1.

Setting [4] is: doses g/kg·bw: Embodiment 1 0.01, L-Theanine 0.0067, Fructooligosaccharide 0.0033, 24 or 48 hours after learning.
Where [5] appears, read: doses g/kg·bw: Embodiment 1 0.01, L-Theanine 0.0067, Fructooligosaccharide 0.0033, 5 days after learning.
Where [6] appears, read: doses g/kg·bw: Embodiment 1 0.01, L-Theanine 0.0067, Fructooligosaccharide 0.0033, training period.
The mark [7] stands for this setting: Low dose: L-theanine 66, FOS 33 mg/kg·bw.
Setting [8] is: Medium dose: L-theanine 134, FOS 66 mg/kg·bw.

The structures appear in SMILES notation.

As for `CCNC(=O)CC[C@H](N)C(=O)O` [L-theanine], the “impact on rodent memory in the mouse passive avoidance test” value in assay [1] (Table 1 doses, vs control) is listed as “neither fructooligoscharide nor L-theanine alone have a positive impact on rodent memory”. Besides, in assay [1] (setting [4]), the “Test Error Count” value was found to be 1.22 ± 1.14. The “Test Incubation period” value in assay [1] (setting [4]) was determined as 232.13 ± 70.71 s. In assay [1] (setting [5]), the “Fade Error Count” value is given as 1.40 ± 1.07. The “Fade Incubation period” value in assay [1] (setting [5]) stood at 267.80 ± 51.03 s. For the same compound, in assay [1] (setting [6]), the “Learning Error Count” value is 3.90 ± 1.52. In addition, the “Learning Incubation period” value in assay [1] (setting [6]) is 48.30 ± 10.71 s. For the same compound, the “Error count during testing phase” value in assay [2] (High dose: L-theanine 200, FOS 100 mg/kg·bw) is listed as 2.41; in assay [2] (setting [7]), 2.45; in assay [2] (setting [8]) it was 2.95; in assay [3] (setting [7]) it was 0.83; in assay [3] (setting [8]), 1.00. Also, the “time to escape during the test (FIG. 1a)” value in assay [2] (all doses, compared to control group, p<0.05) is “significantly (p<0.05) less time to escape”. Moreover, in assay [2] (medium and high dose, between MT-01, L-theanine and FOS), the “escape time during test” value is “no significant differences”. The “latency during the retention phase (FIG. 1c)” value in assay [3] (high dose) is reported as “higher latency”; in assay [3] (low dose), “neither the FOS-only nor L-theanine-only group show any significant difference”.
